Source: US11407715B2, “Substituted indoline derivatives as dengue viral replication inhibitors” (JANSSEN PHARMACEUTICALS, INC., priority 2017, dated 2022)
pEC50: −log10 of the molar value.

Legend:
[1] = in vitro; settings: African green monkey
[2] = test system: DENV-2 16681 strain; assay: microbe, parasite or virus in culture; assay type: cell-based, Dengue virus; settings: for pEC50: DENV-2 16681 eGFP, Vero cells, MOI 0.5, 3 days; for SI: SI=CC50/EC50, DENV-2 antiviral assay
[3] = test system: Vero cells; settings: African green monkey
[4] = Dengue virus, DENV2, Vero, 72 h

Row | Compound | CC50 [1] | pEC50 [2, 4] | SI [2] | pEC50 [2] | CC50 [3]
1 | COc1cc(NC(C(=O)N2CCc3ccc(OC(F)(F)F)cc32)c2ccc(Cl)cc2OC)cc(OCCC(C)C(=O)O)c1 (racemic) [Compound 17, 4-(3-((1-(4-chloro-2-methoxyphenyl)-2-oxo-2-(6-(trifluoromethoxy)indolin-1-yl)ethyl)amino)-5-methoxyphenoxy)-2-methylbutanoic acid] | 13 µM | 9.74 | 100043 | – | –
2 | COc1cc(NC(C(=O)N2CCc3ccc(OC(F)(F)F)cc32)c2ccc(Cl)cc2OC)cc(OCCC(C)(C)C(=O)O)c1 (racemic) [Compound 18, 4-(3-((1-(4-chloro-2-methoxyphenyl)-2-oxo-2-(6-(trifluoromethoxy)indolin-1-yl)ethyl)amino)-5-methoxyphenoxy)-2,2-dimethylbutanoic acid] | 11 µM | 9.31 | 26100 | – | –
3 | COc1cc(NC(C(=O)N2CCc3ccc(OC(F)(F)F)cc32)c2ccc(Cl)cc2)cc(OC2CC(C(=O)O)C2)c1 (stereo not drawn) [Compound 7] | 12 µM | – | 14600 | 9.31 | –
4 | COc1cc(NC(C(=O)N2CCc3ccc(OC(F)(F)F)cc32)c2ccc(Cl)cc2)cc(OCCC(C)(C)C(=O)O)c1 (racemic) [Compound 2, 4-(3-((1-(4-chlorophenyl)-2-oxo-2-(6-(trifluoromethoxy)indolin-1-yl)ethyl)amino)-5-methoxyphenoxy)-2,2-dimethylbutanoic acid] | 12 µM | 9.21 | 19200 | – | –
5 | COc1cc(NC(C(=O)N2CCc3cc(OC)c(C(F)(F)F)cc32)c2ccc(Cl)cc2)cc(OC2CC(C(=O)O)C2)c1 (stereo not drawn) [Compound 23A] | 11 µM | – | 321 | 7.47 | –
6 | COc1cc(NC(C(=O)N2CCc3cc(OC)c(C(F)(F)F)cc32)c2ccc(Cl)cc2)cc(OCCC(C)(C)C(=O)O)c1 (racemic) [Compound 21, 4-(3-((1-(4-chlorophenyl)-2-(5-methoxy-6-(trifluoromethyl)indolin-1-yl)-2-oxoethyl)amino)-5-methoxyphenoxy)-2,2-dimethylbutanoic acid] | 15 µM | 8.96 | 11000 | – | –
7 | COc1cc(NC(C(=O)N2CCc3cc(F)c(OC(F)(F)F)cc32)c2ccc(Cl)cc2)cc(OCC2CC2C(=O)O)c1 (single isomer, unassigned) [Compound 26A, (1R*,2R*)-2-((3-((1-(4-chlorophenyl)-2-(5-fluoro-6-(trifluoromethoxy)indolin-1-yl)-2-oxoethyl)amino)-5-methoxyphenoxy)methyl)-cyclopropanecarboxylic Acid] | 14 µM | – | >12200 | 10.00 | –
8 | COc1cc(NC(C(=O)N2CCc3ccc(OC(F)(F)F)cc32)c2ccc(Cl)cc2)cc(OCC2CC(C(=O)O)C2)c1 (stereo not drawn) [Compound 10] | 12 µM | – | 44900 | 9.57 | –
9 | COc1cc(NC(C(=O)N2CCc3ccc(OC(F)(F)F)cc32)c2ccc(Cl)cc2OC)cc(OCC2CC2C(=O)O)c1 (stereo not drawn) [Compound 19AA] | 11 µM | – | 1030 | 8.00 | –
10 | COc1cc(NC(C(=O)N2CCc3cc(F)c(OC(F)(F)F)cc32)c2ccc(Cl)cc2)cc(OC2CC(C(=O)O)C2)c1 (stereo not drawn) [Compound 27, ((1s,3s)-3-(3-((1-(4-chlorophenyl)-2-(5-fluoro-6-(trifluoromethoxy)indolin-1-yl)-2-oxoethyl)amino)-5-methoxyphenoxy)cyclobutene-carboxylic Acid] | 13 µM | – | 149640 | 10.17 | –
11 | COc1cc(NC(C(=O)N2CCc3cc(OC)c(C(F)(F)F)cc32)c2ccc(Cl)cc2)cc(OCC2CC2C(=O)O)c1 (stereo not drawn) [Compound 22AA] | 13 µM | – | 798 | 7.80 | –
12 | COc1cc(NC(C(=O)N2CCc3ccc(OC(F)(F)F)cc32)c2ccc(Cl)cc2)cc(OCC2CC2C(=O)O)c1 (stereo not drawn) [Compound 6AA] | 8.3 µM | – | 8870 | 9.13 | –
13 | COc1cc(NC(C(=O)N2CCc3ccc(OC(F)(F)F)cc32)c2ccc(Cl)cc2)cc(OCCC(=O)O)c1 (single isomer, unassigned) [Compound 12A] | 10 µM | – | 267 | 7.42 | –
14 | COc1cc(NC(C(=O)N2CCc3ccc(OC(F)(F)F)cc32)c2ccc(Cl)cc2)cc(OCC(C)CC(=O)O)c1 (single isomer, unassigned) [Compound 4A] | 9 µM | – | 3090 | 8.54 | –
15 | COc1cc(CCCC(=O)O)cc(NC(C(=O)N2CCc3ccc(OC(F)(F)F)cc32)c2ccc(Cl)cc2)c1 (racemic) [Compound 15, 4-(3-((1-(4-chlorophenyl)-2-oxo-2-(6-(trifluoromethoxy)indolin-1-yl)ethyl)amino)-5-methoxyphenyl)butanoic acid] | 8.3 µM | 9.38 | 25500 | – | –
16 | COc1cc(NC(C(=O)N2CCc3ccc(OC(F)(F)F)cc32)c2ccc(Cl)cc2)cc(OCCC(C)C(=O)O)c1 (racemic) [Compound 1, 4-(3-((1-(4-chlorophenyl)-2-oxo-2-(6-(trifluoromethoxy)indolin-1-yl)ethyl)amino)-5-methoxyphenoxy)-2-methylbutanoic acid] | 11 µM | 9.30 | 24400 | – | –

Row | Compound | CC50 [1] | pEC50 [2, 4] | SI [2] | pEC50 [2] | CC50 [3]
17 | COc1cc(NC(C(=O)N2CCc3cc(OC)c(C(F)(F)F)cc32)c2ccc(Cl)cc2)cc(OCC2CC(C(=O)O)C2)c1 (stereo not drawn) [Compound 24, (1s,3s)-3-((3-((1-(4-chlorophenyl)-2-(5-methoxy-6-(trifluoromethyl)indolin-1-yl)-2-oxoethyl)amino)-5-methoxyphenoxy)methyl)-cyclobutanecarboxylic Acid] | 12 µM | – | 18300 | 9.19 | –
18 | COc1cc(NC(C(=O)N2CCc3ccc(OC(F)(F)F)cc32)c2ccc(Cl)cc2)cc(OCCC2(C(=O)O)CC2)c1 (racemic) [Compound 3, 1-(2-(3-((1-(4-chlorophenyl)-2-oxo-2-(6-(trifluoromethoxy)indolin-1-yl)ethyl)amino)-5-methoxyphenoxy)ethyl)cyclopropane-1-carboxylic acid] | 10 µM | 9.30 | 17700 | – | –
19 | COc1cc(NC(C(=O)N2CCc3ccc(OC(F)(F)F)cc32)c2ccc(Cl)cc2)cc(OCC2CC(C(=O)O)C2)c1 (stereo not drawn) [Compound 10A] | – | – | 3790 | 8.57 | 10 µM
20 | COc1cc(NC(C(=O)N2CCc3ccc(OC(F)(F)F)cc32)c2ccc(Cl)cc2)cc(OC2CC(C(=O)O)C2)c1 (stereo not drawn) [Compound 8, (1s,3s)-3-(3-((1-(4-chlorophenyl)-2-oxo-2-(6-(trifluoromethoxy)indolin-1-yl)ethyl)amino)-5-methoxyphenoxy)cyclobutanecarboxylic acid] | – | – | >126733 | 10.32 | 13 µM
21 | COc1cc(NC(C(=O)N2CCc3ccc(OC(F)(F)F)cc32)c2ccc(Cl)cc2)cc(OCC2CC(C(=O)O)C2)c1 (stereo not drawn) [Compound 11, (1r,3r)-3-((3-((1-(4-chlorophenyl)-2-oxo-2-(6-(trifluoromethoxy)indolin-1-yl)ethyl)amino)-5-methoxyphenoxy)methyl)cyclobutanecarboxylic acid] | – | – | 97100 | 9.89 | 12 µM
22 | COc1cc(NC(C(=O)N2CCc3ccc(OC(F)(F)F)cc32)c2ccc(Cl)cc2)cc(OC2CC(C(=O)O)C2)c1 (stereo not drawn) [Compound 7A] | – | – | 1130 | 8.04 | 10 µM
23 | COc1cc(NC(C(=O)N2CCc3cc(F)c(OC(F)(F)F)cc32)c2ccc(Cl)cc2)cc(OCC2CC(C(=O)O)C2)c1 (stereo not drawn) [Compound 30B] | – | – | 1800 | 8.23 | 11 µM
24 | COc1cc(NC(C(=O)N2CCc3cc(F)c(OC(F)(F)F)cc32)c2ccc(Cl)cc2)cc(OCC2CC(C(=O)O)C2)c1 (stereo not drawn) [Compound 31B] | – | – | 4400 | 8.59 | 12 µM
25 | COc1cc(NC(C(=O)N2CCc3cc(OC)c(C(F)(F)F)cc32)c2ccc(Cl)cc2)cc(OCC2CC2C(=O)O)c1 (stereo not drawn) [Compound 22BA] | – | – | 786 | 7.82 | 12 µM
26 | COc1cc(CCCCC(=O)O)cc(NC(C(=O)N2CCc3ccc(OC(F)(F)F)cc32)c2ccc(Cl)cc2)c1 (single isomer, unassigned) [Compound 14B] | – | – | 156 | 7.22 | 9.3 µM
27 | COc1cc(NC(C(=O)N2CCc3cc(F)c(OC(F)(F)F)cc32)c2ccc(Cl)cc2)cc(OC2CC(C(=O)O)C2)c1 (single isomer, unassigned) [Compound 27A] | – | – | 14300 | 9.39 | 11 µM
28 | COc1cc(NC(C(=O)N2CCc3ccc(OC(F)(F)F)cc32)c2ccc(Cl)cc2)cc(OCC2(F)CC2C(=O)O)c1 (stereo not drawn) [Compound 28AA] | – | – | 34 | 6.48 | 11 µM
29 | COc1cc(NC(C(=O)N2CCc3cc(OC)c(C(F)(F)F)cc32)c2ccc(Cl)cc2)cc(OCC2CC(C(=O)O)C2)c1 (stereo not drawn) [Compound 25, (1r,3r)-3-((3-((1-(4-chlorophenyl)-2-(5-methoxy-6-(trifluoromethyl)indolin-1-yl)-2-oxoethyl)amino)-5-methoxyphenoxy)methyl)-cyclobutanecarboxylic Acid] | – | – | 26800 | 9.35 | 12 µM
30 | COc1cc(NC(C(=O)N2CCc3ccc(OC(F)(F)F)cc32)c2ccc(Cl)cc2)cc(OC2CC(C(=O)O)C2)c1 (stereo not drawn) [Compound 8A] | – | – | 11600 | 9.07 | 12 µM
31 | COc1cc(NC(C(=O)N2CCc3cc(OC)c(Cl)cc32)c2ccc(Cl)cc2)cc(OC2CC(C(=O)O)C2)c1 (single isomer, unassigned) [Compound 32A] | – | – | 205 | 7.20 | 13 µM
32 | COc1cc(NC(C(=O)N2CCc3ccc(OC(F)(F)F)cc32)c2ccc(Cl)cc2)cc(OCC2(F)CC2C(=O)O)c1 (stereo not drawn) [Compound 28BA] | – | – | 574 | 7.77 | 10 µM
